{
  "source": "patent US7977375B2",
  "about": "“Antibiotic and method of production thereof” (Helmholtz-Zentrum Für Infektionsforschung GmbH, priority 2004, dated 2011)",
  "key": {"[1]": {"conditions": "state of the art; cited from earlier work"}, "[2]": {"tested_on": "B. cepacia SCV 141", "experiment": "agar diffusion method, inhibition zone", "format": "cell-based, Burkholderia cepacia", "conditions": "MH agar, 18 hours at 37° C., per disk 10 μl crude extract, 50 μg macrolactin, 78 μg erythromycin, 10 μg ampicillin", "description": "(§1) The agar diffusion method employing Mueller-Hinton (MH) agar (Difco Laboratories) was used to determine effectiveness against bacteria and yeasts. Sterile paper disks (Schleicher & Schüell, Germany) were seeded with 10 μl crude extract or with a solution of purified macrolactin (final compound concentration on the disk 50 μg) and then placed on the surface of MH-agar plates that had been seeded beforehand with a suspension of overnight culture of the test microorganisms at a concentration of 10^5 cells/ml.\nThe B. cepacia strain used, which is a clinical isolate from a cystic fibrosis patient, forms small colonies (SCV 141)."}, "[3]": {"tested_on": "E. faecalis VRAS E305", "experiment": "agar diffusion method, inhibition zone", "format": "cell-based, Enterococcus faecalis", "conditions": "E. faecalis VRAS E305; MH agar, 18 hours at 37° C.; per disk 10 μl crude extract, 50 μg macrolactin, 78 μg erythromycin, 30 μg vancomycin, 10 μg ampicillin", "description": "as §1"}, "[4]": {"tested_on": "E. faecalis ATCC 29212", "experiment": "agar diffusion method, inhibition zone", "format": "cell-based, Enterococcus faecalis", "conditions": "E. faecalis ATCC 29212; MH agar, 18 hours at 37° C.; per disk 10 μl crude extract, 50 μg macrolactin, 78 μg erythromycin, 30 μg vancomycin, 10 μg ampicillin", "description": "as §1"}, "[5]": {"tested_on": "S. aureus DSMZ 1104", "experiment": "agar diffusion method, inhibition zone", "format": "cell-based, Staphylococcus aureus", "conditions": "S. aureus DSMZ 1104; MH agar, 18 hours at 37° C.; per disk 10 μl crude extract, 50 μg macrolactin, 78 μg erythromycin, 30 μg vancomycin, 10 μg ampicillin", "description": "as §1"}, "[6]": {"tested_on": "MRSA 2 (methicillin-resistant S. aureus, clinical isolate)", "experiment": "agar diffusion method, inhibition zone", "format": "cell-based, Staphylococcus aureus", "conditions": "MRSA 2; MH agar, 18 hours at 37° C.; per disk 10 μl crude extract, 50 μg macrolactin, 78 μg erythromycin, 30 μg vancomycin, 10 μg ampicillin", "description": "as §1"}, "[7]": {"tested_on": "S. aureus # (own collection, methicillin-sensitive control strain)", "experiment": "agar diffusion method, inhibition zone", "format": "cell-based, Staphylococcus aureus", "conditions": "S. aureus # own collection; MH agar, 18 hours at 37° C.; per disk 10 μl crude extract, 50 μg macrolactin, 78 μg erythromycin, 30 μg vancomycin, 10 μg ampicillin", "description": "as §1"}, "[8]": {"tested_on": "MRSA 3 (methicillin-resistant S. aureus, clinical isolate)", "experiment": "agar diffusion method, inhibition zone", "format": "cell-based, Staphylococcus aureus", "conditions": "MRSA 3; MH agar, 18 hours at 37° C.; per disk 10 μl crude extract, 50 μg macrolactin, 78 μg erythromycin, 30 μg vancomycin, 10 μg ampicillin", "description": "as §1"}, "[9]": {"tested_on": "L929 mouse fibroblast cells", "experiment": "inhibition of proliferation, CyQUANT cell proliferation test", "format": "cell-based", "conditions": "5 days", "description": "The cytotoxicity of 7-O-malonyl macrolactin A was compared to that of 7-O-succinyl macrolactin A and macrolactin A in vitro with respect to the inhibition of the proliferation of L929 mouse fibroblast cells or the human epithelial cell line HeLa.\nFor the cell culture, the HeLa cells were cultivated in low-glucose DMEM medium (Gibco), and the L929 cells in high-glucose DMEM medium. Both were supplemented with 10% by volume foetal calf serum (Gibco) at 37° C. in an atmosphere containing 5% CO2. The cells were extracted from stock cultures by means of trypsinization with EDTA (HeLa) or without EDTA (L929), then counted and diluted to 2×10^5 cells/ml. For the tests, microtitre plates (Nunc.) comprising 96 depressions were plated out in serial dilution without or in the presence of the test compounds or methanol. Determination of morphological alterations of the cells was carried out by means of phase contrast microscopy after 1, 2 and 5 days incubation.\nAfter 5 days cultivation, cell counts were determined by the CyQUANT cell proliferation test (Molecular Probes), which is a highly sensitive microtitre plate test based on fluorescence. The test employs the dye CyQUANT, which, by binding to cellular nucleic acids, enhances fluorescence, which can then be measured by fluorescein excitation. The emission of fluorescence by the dye-nucleic acid complex correlated linearly with the cell count. For test purposes, the residue was carefully removed after 5 days incubation, the cells washed with PBS (phosphate buffered saline solution), the buffer removed and the cells frozen at −80° C. For the test, the cells were thawed at ambient temperature and lysated in a buffered solution containing the dye CyQUANT, in accordance with manufacturer's instructions. Fluorescence was measured by means of a fluormetric microtitre-plate reader (Titertex Fluorskan II) (excitation at 480 nm, emission at 520 nm). The […] were used to calculate the percentage of cellular proliferation in medium both alone and in the presence of serial dilutions of methanol and the macrolactin compounds. […] Proliferation was measured by means of the fluorescence-based test CyQUANT for determining viable cell counts. Table 5 illustrates the relative inhibition of proliferation as compared to a control culture comprising fresh medium without the addition of a macrolactin."}, "[10]": {"tested_on": "bacteria", "conditions": "state of the art; cited from earlier work"}, "[11]": {"tested_on": "E. faecium VRAR E315", "experiment": "agar diffusion method, inhibition zone", "format": "cell-based, Enterococcus faecium", "conditions": "E. faecium VRAR E315; MH agar, 18 hours at 37° C.; per disk 10 μl crude extract, 50 μg macrolactin, 78 μg erythromycin, 30 μg vancomycin, 10 μg ampicillin", "description": "as §1"}, "[12]": {"tested_on": "HIV", "conditions": "state of the art; cited from earlier work"}, "[13]": {"conditions": "JP 9301970; cited from earlier work"}, "[14]": {"tested_on": "Candida krusei DSM 6128", "experiment": "MIC / MBC in liquid culture", "format": "cell-based", "conditions": "Pichia kudriavzevii, DSM6128, read-out: MIC (minimal inhibitory concentration)"}, "[15]": {"tested_on": "Candida albicans DSM 11225", "experiment": "MIC / MBC in liquid culture", "format": "cell-based", "conditions": "DSM11225, read-out: MIC (minimal inhibitory concentration)"}, "[16]": {"tested_on": "Candida parapsilosis DSM5784", "experiment": "MIC / MBC in liquid culture", "format": "cell-based", "conditions": "Lodderomyces parapsilosis, read-out: MIC (minimal inhibitory concentration)"}},
  "data": [
    {"compound": "C[C@@H]1CCC/C=C/C=C/C(O)CC(O)C/C=C\\C=C\\C(O)C/C=C/C=C\\C(=O)O1", "note": "(stereo partly drawn) [Macrolactin A, 8, 14, 16-trihydroxy-24(R)-methyl-oxacyclotetracosa-3(Z), 5(B), 9(E), 11(Z), 17(E), 19(E)-hexaen-2-on]", "values": [
      {"measurement": "cytotoxicity", "setting": "[1]", "result": "cytotoxic"},
      {"measurement": "Inhibition zone", "setting": "[2]", "result": 0, "unit": "mm"},
      {"measurement": "Inhibition zone", "setting": "[3]", "result": 0, "unit": "mm"},
      {"measurement": "Inhibition zone", "setting": "[4]", "result": 0, "unit": "mm"},
      {"measurement": "Inhibition zone", "setting": "[5]", "result": 18, "unit": "mm"},
      {"measurement": "Inhibition zone", "setting": "[6]", "result": 27, "unit": "mm"},
      {"measurement": "Inhibition zone", "setting": "[7]", "result": 25, "unit": "mm"},
      {"measurement": "Inhibition zone", "setting": "[8]", "result": 35, "unit": "mm"},
      {"measurement": "Inhibition of proliferation", "setting": "[9]; compound concentration 3.9 μg/ml", "result": 23, "unit": "%"},
      {"measurement": "Inhibition of proliferation", "setting": "[9]; compound concentration 7.8 μg/ml", "result": 29, "unit": "%"},
      {"measurement": "Inhibition of proliferation", "setting": "[9]; compound concentration 15.6 μg/ml", "result": 38, "unit": "%"},
      {"measurement": "Inhibition of proliferation", "setting": "[9]; compound concentration 31.25 μg/ml", "result": 81, "unit": "%"},
      {"measurement": "Inhibition of proliferation", "setting": "[9]; compound concentration 56.5 μg/ml", "result": 83, "unit": "%"},
      {"measurement": "Inhibition of proliferation", "setting": "[9]; compound concentration 125 μg/ml", "result": 83, "unit": "%"},
      {"measurement": "antibacterial activity", "setting": "[10]", "result": "relatively weak"},
      {"measurement": "Inhibition zone", "setting": "[11]", "result": 0, "unit": "mm"},
      {"measurement": "antiviral activity", "setting": "[12]", "result": "active against HIV"}
    ]},
    {"compound": "macrolactin M", "values": [
      {"measurement": "antimicrobial activity", "setting": "[13]", "result": "antimicrobially active"}
    ]},
    {"compound": "Clc1ccc(COC(Cn2ccnc2)c2ccc(Cl)cc2Cl)c(Cl)c1", "note": "(stereo not drawn) [MCZ, miconazol]", "values": [
      {"measurement": "MIC", "setting": "[14]", "result": 2, "unit": "µg/mL"},
      {"measurement": "MIC", "setting": "[15]", "result": 2, "unit": "µg/mL"},
      {"measurement": "MIC", "setting": "[16]", "result": 2, "unit": "µg/mL"}
    ]}
  ]
}
